Results on one molecule are retold here after PMC7018803, “A randomized, placebo-controlled, phase 1 study to evaluate the effects of TAK-063 on ketamine-induced changes in fMRI BOLD signal in healthy subjects” (Psychopharmacology, 2019).

Test [1] concerns rodent models of cognitive impairment. Details: method as in Shiraishi et al. [2016]. To be noted: ref Shiraishi et al. [2016]; cited from earlier work.
For a further test, the system named is healthy male subjects. The test is described as follows: Ketamine-induced changes in fMRI BOLD signal during working memory task (AX-CPT). In kind it is in vivo, human. The procedure:
Subjects checked in on day − 1 of each treatment period during which vital signs, electrocardiogram (ECG), and laboratory safety tests were repeated. On day 1 of each treatment period, subjects received a 3-, 10-, or 30-mg TAK-063 dose or placebo tablets. Participants then relaxed, slept, or watched movies while remaining in the research environment. Ketamine (0.12 mg/kg intravenous bolus over 60 s followed by a continuous infusion of 0.31 mg/kg/h over approximately 150 min) was administered 4 h after TAK-063 or placebo (Fig. 1). This ketamine dose was based on a previous study that achieved steady-state concentrations of 75 ng/mL and provided a robust BOLD signal with minimal psychotomimetic symptoms (De Simoni et al. [2013]).
The scanning protocol for the current study was very comprehensive and included multiple MR approaches. This publication reports the BOLD fMRI data for the working memory task, but also resting state fMRI. The magnetic scanning portion of the neuroimaging test battery was initiated 20 min before ketamine dosing. Imaging was performed using a 3 Tesla Siemens Trio scanner. The MR scanning protocol was initiated 20 min before ketamine dosing; prior to scanning, a structural magnetization prepared rapid gradient echo (MPRAGE) scan was collected. As part of the scanning protocol, each subject received 20 min of scanning − 10 min arterial spin labeling (ASL) plus 10 min resting BOLD prior to ketamine infusion. After ketamine infusion, the resting state fMRI BOLD acquisition continued for an additional 10 min. Next, a Spatial Working Memory task-induced fMRI BOLD acquisition was performed for 15 min. Following these BOLD acquisitions, another 10 min ASL scan was acquired and a 10-min T1 relaxometry scan was conducted. The MR scanning sequence ended with a 5-min MPRAGE acquisition. […]
The functional imaging analyses for the working memory task was performed using SPM8 (Wellcome Department of Cognitive Neurology, London, UK). […] Data from each subject for each task were analyzed with a fixed box-car function convolved with a model hemodynamic response function. […]

As to `COc1cn(-c2ccc(-n3cccn3)cc2F)nc(-c2ccnn2-c2ccccc2)c1=O` [TAK-063], the “MK-801 and phencyclidine-induced effects on spatial working memory, attentional set-shifting, and executive function” value in test [1] is on record as “reversed”. Further, in the test on healthy male subjects (10 mg, working memory task, small non-negative effects), the “effect size in right substantia nigra, left thalamus and left ventrolateral prefrontal cortex” value is reported as below 0.15. Besides, in the test on healthy male subjects (30 mg, working memory task), the “effect in left amygdala” value was “small non-negative effect”. Further, the “effect on Cohen's effect size for fMRI BOLD signal during working memory task” value in the test on healthy male subjects (across all doses) is given as “decreased the Cohen’s effect size for fMRI BOLD signal in many brain regions”.
